Assay results reported in US20210346459A1, “Application of Dalargin for the prevention of VRIs and prevention of the development of complications during VRIs” (priority 2020, published 2021).
Where two headings read alike, the source gives them in different places. Square brackets hold non-standard residues; d marks the D form. Peptide text beside a SMILES is read from it.

Key:
in vitro = conditions: African green monkey
[1] = system: influenza virus A/Puerto Rico/8/34 (H1N1); conditions: for Virus titer PR8 (influenza virus): virus control 5.5
[2] = administered by injection or infusion; cited from earlier work

With `CC(C)C[C@H](NC(=O)[C@H](Cc1ccccc1)NC(=O)CNC(=O)[C@@H](C)NC(=O)[C@@H](N)Cc1ccc(O)cc1)C(=O)N[C@@H](CCCNC(=N)N)C(=O)O` [Dalargin, tyrosyl-D-alanyl-glycyl-phenylalanyl-leucyl-arginine diacetate] (H-Y[dA]GFLR-OH) the CC50 (in vitro) was no less than 30 µg/mL, the “Virus titer PR8 (influenza virus)” value ([1]; 0.4 μg/mL) was 5.5 lg TCID50/0.1 mL and the “Virus titer PR8 (influenza virus)” value ([1]; 1.1 μg/mL) was 5.0 lg TCID50/0.1 mL. For the same molecule, the “Virus titer PR8 (influenza virus)” value ([1]; 3.3 μg/mL) was 5.0 lg TCID50/0.1 mL, the “Virus titer PR8 (influenza virus)” value ([1]; 10 μg/mL) was 4.5 lg TCID50/0.1 mL and the “Virus titer PR8 (influenza virus)” value ([1]; 30 μg/mL) was 4.0 lg TCID50/0.1 mL. The SI ([1]; CC50/IC50, PR8 (influenza virus)) was greater than 37.5, the IC50 ([1]; PR8 (influenza virus), MDCK) was 0.8 µg/mL and the “Antiviral properties (in words)” value ([1]; influenza virus, MDCK) was “dose-dependent reduction of the infectious activity”. The Mean elimination half-life [2] was 12 min.
